Source: US4588692A, “Antibiotic compounds, process for the preparation and pharmaceutical compositions thereof, methods of treatment therewith and Staphylococcus bacteria” (priority 1979, dated 1986)

System: S. epidermidis NCIB 11536
Assay: Antibiotic disc sensitivities of the producer strain
Format: cell-based
Conditions: for Sensitive to: Amount of antibiotic/disc: strain sensitive at this disc content

Molecule | Novobiocin sensitivity (5 μg disc) | Sensitive to: Amount of antibiotic/disc
CO[C@@H]1[C@@H](OC(N)=O)[C@@H](O)[C@H](Oc2ccc3c(O)c(NC(=O)c4ccc(O)c(CC=C(C)C)c4)c(=O)oc3c2C)OC1(C)C [novobiocin] | sensitive | –
CC1(C)S[C@@H]2[C@H](NC(=O)Cc3ccccc3)C(=O)N2[C@H]1C(=O)O [penicillin G] | – | 1 unit
gentamycin | – | 10 µg
